The assay relates to P388 leukemia ip, CD2F1 mice, survival T/C. Nature of the assay: NCI In Vivo Anticancer Drug Screen. Data for tumor model P388 Leukemia (intraperitoneal) in CD2F1 (CDF1) mice. The conditions noted are these: endpoint: median survival time, higher = longer survival. Summed up: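 Mice carrying the transplanted tumor received test compound or vehicle. Survival was recorded in each group, and the value is the treated-group measurement divided by that of the vehicle-treated control group.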

[1] abbreviates: dose: 50.0 mg/kg/injection, schedule: Q01DX005 (ip), vehicle: Klucel (hydroxypropylcellulose) (HPC).
The mark [2] stands for this setting: dose: 100.0 mg/kg/injection, schedule: Q01DX005 (ip), vehicle: Klucel (hydroxypropylcellulose) (HPC).
[3] abbreviates: dose: 200.0 mg/kg/injection, schedule: Q01DX005 (ip), vehicle: Klucel (hydroxypropylcellulose) (HPC).
The mark [4] stands for this setting: dose: 50.0 mg/kg/injection, schedule: Q01DX009 (ip), vehicle: saline with Tween-80.
Where [5] appears, read: dose: 100.0 mg/kg/injection, schedule: Q01DX009 (ip), vehicle: saline with Tween-80.
Setting [6] is: dose: 200.0 mg/kg/injection, schedule: Q01DX009 (ip), vehicle: saline with Tween-80.
Setting [7] is: dose: 50.0 mg/kg/injection, schedule: Q01DX009 (ip), vehicle: saline.
The mark [8] stands for this setting: dose: 100.0 mg/kg/injection, schedule: Q01DX009 (ip), vehicle: saline.
Setting [9] is: dose: 3.12 mg/kg/injection, schedule: Q01DX005 (ip), vehicle: saline with Tween-80.
[10] abbreviates: dose: 6.25 mg/kg/injection, schedule: Q01DX005 (ip), vehicle: saline with Tween-80.
The mark [11] stands for this setting: dose: 100.0 mg/kg/injection, schedule: Q01DX001 (ip), vehicle: Klucel (hydroxypropylcellulose) (HPC).
[12] abbreviates: dose: 200.0 mg/kg/injection, schedule: Q01DX001 (ip), vehicle: Klucel (hydroxypropylcellulose) (HPC).
Where [13] appears, read: dose: 60.0 mg/kg/injection, schedule: Q01DX005 (ip), vehicle: Klucel (hydroxypropylcellulose) (HPC).
The mark [14] stands for this setting: dose: 120.0 mg/kg/injection, schedule: Q01DX005 (ip), vehicle: Klucel (hydroxypropylcellulose) (HPC).
[15] abbreviates: dose: 12.5 mg/kg/injection, schedule: Q01DX009 (ip), vehicle: saline with Tween-80.
Setting [16] is: dose: 25.0 mg/kg/injection, schedule: Q01DX009 (ip), vehicle: saline with Tween-80.
Setting [17] is: dose: 100.0 mg/kg/injection, schedule: Q01DX005 (ip), vehicle: saline with Tween-80.
Where [18] appears, read: dose: 200.0 mg/kg/injection, schedule: Q01DX009 (ip), vehicle: saline.
Where [19] appears, read: dose: 6.25 mg/kg/injection, schedule: Q01DX009 (ip), vehicle: saline with Tween-80.

Values joined by “and” are separate entries in the source; they are usually repeats but may differ in a detail not shown here. Equal values may be shown once. Toxic doses and inconclusive results are not listed.

For `C=C(C)/C=N/O`, the T/C is 113 % of control under setting [1], 104 % of control under setting [2] and 106 % of control under setting [3].
Consider `COC1CC(C23C4CC2C3C2CC/C=C\CCC24)CC1OC` (stereo unspecified), for which the T/C is, setting by setting: under setting [4], 98 % of control; under setting [5], 100 % of control; under setting [6], 102 % of control.
For the compound `C/C(=N/N=C(N)N)c1ccc(NC(=O)Nc2ccc(/C(C)=N/N=C(N)N)cc2)cc1`, the T/C reads like this: (dose: 6.25 mg/kg/injection, schedule: Q01DX009 (ip), vehicle: water) 151 % of control; (dose: 100.0 mg/kg/injection, schedule: Q04DX003 (ip), vehicle: saline with Tween-80) 150 % of control; (dose: 150.0 mg/kg/injection, schedule: Q04DX003 (ip), vehicle: saline with Tween-80) 118 % of control.
For `CCN1C(=O)/C(=C/C=C/N(C)c2ccccc2)SC1=S`, the T/C under setting [7] was 112 % of control and the T/C under setting [8] was 103 % of control.
`COC(=O)CCSC(=O)NS(=O)(=O)c1ccc(C)cc1`: the T/C under setting [1] is 104 % of control, the T/C under setting [2] was 102 % of control and the T/C under setting [3] is 104 % of control.
Turning to `C[N+](C)(C)C.[CH-]1CCCCC1.[CH-]1CCCCC1.[CH-]1CCCCC1.[Cl-].[Cl-].[Sn+4]`, the T/C was 108 % of control under setting [9] and 101 % of control under setting [10].
Regarding `Cc1nc(-c2ccccc2)nc2c1nc(Cc1ccccc1)n2Nc1ccccc1`, the T/C under setting [11] was 87 % of control; the T/C under setting [12] is 91 % of control; the T/C (dose: 400.0 mg/kg/injection, schedule: Q01DX001 (ip), vehicle: Klucel (hydroxypropylcellulose) (HPC)) was 87 % of control.
For the compound `CCCCCCCCCCCCCCCC(=O)NCC(=O)NC1CC(OC2CC(O)(C(C)=O)Cc3c(O)c4c(c(O)c32)C(=O)c2c(OC)cccc2C4=O)OC(C)C1O` (stereo unspecified), the T/C (dose: 0.75 mg/kg/injection, schedule: Q01DX009 (ip), vehicle: other) is 100 % of control; the T/C (dose: 1.5 mg/kg/injection, schedule: Q01DX009 (ip), vehicle: other) was 103 % of control; the T/C (dose: 3.0 mg/kg/injection, schedule: Q01DX009 (ip), vehicle: other) was 118 % of control.
As to `O=C1c2ccccc2C(=O)C1NOCCCCl`, the T/C under setting [13] is 100 % of control; the T/C under setting [14] is 99 % of control; the T/C (dose: 240.0 mg/kg/injection, schedule: Q01DX005 (ip), vehicle: Klucel (hydroxypropylcellulose) (HPC)) is 101 % of control.
Consider `O=C(OC(Cc1ccccc1)C(=O)O)c1ccc([N+](=O)[O-])cc1` (stereo unspecified), for which the T/C by setting is: (dose: 50.0 mg/kg/injection, schedule: Q01DX001 (ip), vehicle: Klucel (hydroxypropylcellulose) (HPC)) 97 % of control; under setting [11], 111 % of control; under setting [12], 109 % of control.
For the compound `Nc1ccccc1C(=O)N/N=C\c1ccc(O)cc1`, the T/C is, setting by setting: under setting [15], 94 % of control; under setting [16], 89 % of control and 91 % of control; under setting [4], 101 % of control and 94 % of control; under setting [5], 99 % of control and 87 % of control.
As for `N#CCc1ccccc1Br`, the T/C was 93 % of control (dose: 50.0 mg/kg/injection, schedule: Q01DX005 (ip), vehicle: saline with Tween-80) and 101 % of control under setting [17].
As for `CCCCC(=O)Nc1ncc([N+](=O)[O-])s1`, the T/C (dose: 25.0 mg/kg/injection, schedule: Q01DX009 (ip), vehicle: Klucel (hydroxypropylcellulose) (HPC)) is 110 % of control; the T/C (dose: 50.0 mg/kg/injection, schedule: Q01DX009 (ip), vehicle: Klucel (hydroxypropylcellulose) (HPC)) is 102 % of control and 104 % of control and 116 % of control; the T/C (dose: 100.0 mg/kg/injection, schedule: Q01DX009 (ip), vehicle: Klucel (hydroxypropylcellulose) (HPC)) is 101 % of control and 103 % of control and 113 % of control; the T/C (dose: 200.0 mg/kg/injection, schedule: Q01DX009 (ip), vehicle: Klucel (hydroxypropylcellulose) (HPC)) is 105 % of control and 111 % of control and 123 % of control.
Regarding `Fc1ccccc1/C=C/c1ccnnc1`, the T/C under setting [7] was 94 % of control, the T/C under setting [8] was 95 % of control and the T/C under setting [18] is 103 % of control.
With `CC1N[P+]2(OC1=O)Oc1ccccc1N2C` (stereo unspecified), the T/C is, setting by setting: (dose: 87.5 mg/kg/injection, schedule: Q04DX002 (ip), vehicle: Klucel (hydroxypropylcellulose) (HPC)) 102 % of control; (dose: 175.0 mg/kg/injection, schedule: Q04DX002 (ip), vehicle: Klucel (hydroxypropylcellulose) (HPC)) 100 % of control; (dose: 350.0 mg/kg/injection, schedule: Q04DX002 (ip), vehicle: Klucel (hydroxypropylcellulose) (HPC)) 100 % of control.
`CC(=O)OCCOCNC(=S)NN1CCOCC1`: the T/C by setting is: (dose: 60.0 mg/kg/injection, schedule: Q01DX005 (ip), vehicle: saline with Tween-80) 100 % of control; (dose: 120.0 mg/kg/injection, schedule: Q01DX005 (ip), vehicle: saline with Tween-80) 95 % of control; (dose: 240.0 mg/kg/injection, schedule: Q01DX005 (ip), vehicle: saline with Tween-80) 100 % of control.
For the compound `CC(O)(c1ccco1)c1nc2ccccc2s1` (stereo unspecified), the T/C was 101 % of control under setting [13] and 101 % of control under setting [14].
Consider `O=C(O)Cn1nc([O-])[n+]2ccccc12`, for which the T/C by setting is: under setting [4], 100 % of control; under setting [5], 94 % of control; under setting [6], 110 % of control.
Take `Nc1[nH]c(=S)[nH]c(=O)c1N=Nc1ccccc1`: the T/C by setting is: (dose: 100.0 mg/kg/injection, schedule: Q01DX001 (ip), vehicle: saline with Tween-80) 98 % of control; (dose: 200.0 mg/kg/injection, schedule: Q01DX001 (ip), vehicle: saline with Tween-80) 102 % of control; (dose: 400.0 mg/kg/injection, schedule: Q01DX001 (ip), vehicle: saline with Tween-80) 117 % of control.
For `O=C1c2ccccc2NC(c2cc(Cl)cc(Cl)c2O)N1CCc1ccccn1` (stereo unspecified), the T/C reads like this: under setting [7], 92 % of control; under setting [8], 94 % of control.
With `Nc1c(C(=O)NCc2ccccc2)c2nc3c(C(=O)NCc4ccccc4)cccc3oc-2cc1=O`, the T/C reads like this: (dose: 1.56 mg/kg/injection, schedule: Q01DX005 (ip), vehicle: saline with Tween-80) 99 % of control; under setting [9], 89 % of control; under setting [10], 89 % of control; under setting [17], 86 % of control; (dose: 200.0 mg/kg/injection, schedule: Q01DX005 (ip), vehicle: saline with Tween-80) 100 % of control.
Regarding `O=c1[nH]cc(B(O)O)c(=O)[nH]1`, the T/C reads like this: under setting [8], 106 % of control; under setting [18], 113 % of control; (dose: 400.0 mg/kg/injection, schedule: Q01DX009 (ip), vehicle: saline) 113 % of control.
With `O=C1C(=O)C(Cl)=C(Cl)C(Cl)=C1Cl`, the T/C reads like this: under setting [19], 100 % of control and 95 % of control; under setting [15], 93 % of control; under setting [16], 100 % of control and 98 % of control.
In the case of `CN(C)/N=N/c1ccn[nH]1`, the T/C is, setting by setting: under setting [9], 121 % of control; (dose: 3.12 mg/kg/injection, schedule: Q01DX009 (ip), vehicle: saline with Tween-80) 104 % of control; (dose: 3.13 mg/kg/injection, schedule: Q01DX009 (ip), vehicle: saline) 97 % of control; under setting [10], 121 % of control; under setting [19], 107 % of control; (dose: 6.25 mg/kg/injection, schedule: Q01DX009 (ip), vehicle: saline) 87 % of control. Besides, the T/C (dose: 12.5 mg/kg/injection, schedule: Q01DX005 (ip), vehicle: saline with Tween-80) is 118 % of control; the T/C (dose: 12.5 mg/kg/injection, schedule: Q01DX009 (ip), vehicle: saline) was 92 % of control; the T/C (dose: 25.0 mg/kg/injection, schedule: Q01DX005 (ip), vehicle: saline with Tween-80) is 121 % of control; the T/C under setting [16] is 121 % of control; the T/C (dose: 25.0 mg/kg/injection, schedule: Q01DX009 (ip), vehicle: saline) is 113 % of control; the T/C under setting [4] is 122 % of control. Further, under setting [7], the T/C is 101 % of control.

For the origin of these results see PubChem BioAssay AID330 (DTP/NCI, 2004).
